Columns and labels:
UACC-62 = assay: NCI in vitro screen, SRB percent growth, Melanoma
HOP-62 = assay: NCI in vitro screen, SRB percent growth, Non-Small Cell Lung Cancer
KM12 = assay: NCI in vitro screen, SRB percent growth, Colon Cancer
DMS 114 = assay: cells; settings: Homo sapiens
COLO 205 = assay: NCI in vitro screen, SRB percent growth, Colon Cancer
TK-10 = assay: NCI in vitro screen, SRB percent growth, Renal Cancer
CCRF-CEM = assay: NCI in vitro screen, SRB percent growth, Leukemia
A549/ATCC = assay: NCI in vitro screen, SRB percent growth, Non-Small Cell Lung Cancer
M19-MEL = assay: NCI in vitro screen, SRB percent growth, Melanoma
[1] = Log10 Concentration -7.0, 0.1 µM
[2] = Log10 Concentration -4.0, 100 µM

With `Cc1ccc2[nH]c3c(C)c4c(c(C)c3c2c1)CN(C)C=C4` [Formula XI] the “Percent Growth” value (UACC-62; Log10 Concentration -5.0) was -91%, the “Percent Growth” value (UACC-62; Log10 Concentration -6.0, 1 µM) was 92% and the “Percent Growth” value (UACC-62; [1]) was 100%. For the same compound, the “Percent Growth” value (UACC-62; Log10 Concentration -8.0) was 106%, the TGI (UACC-62; PG=0) was 3180 nM and the GI50 (UACC-62; PG=+50) was 1690 nM. The CC50 (UACC-62; read-out: LC-50, PG=-50) was 5990 nM, the “Percent Growth” value (HOP-62; [2]) was -89% and the “Percent Growth” value (HOP-62; Log10 Concentration -5.0) was -39%. The “Percent Growth” value (HOP-62; Log10 Concentration -6.0, 1 µM) was 11%, the “Percent Growth” value (HOP-62; [1]) was 119% and the “Percent Growth” value (HOP-62; Log10 Concentration -8.0) was 121%. It also gave a TGI (HOP-62; PG=0) of 1640 nM, a GI50 (HOP-62; PG=+50) of 433 nM and a CC50 (HOP-62; read-out: LC-50, PG=-50) of 16300 nM. For the same compound, the “Percent Growth” value (KM12; [2]) was -93%, the “Percent Growth” value (KM12; Log10 Concentration -5.0) was -48% and the “Percent Growth” value (KM12; Log10 Concentration -6.0, 1 µM) was 38%. The “Percent Growth” value (KM12; [1]) was 95%, the “Percent Growth” value (KM12; Log10 Concentration -8.0) was 97% and the TGI (KM12; PG=0) was 2780 nM. The GI50 (KM12; PG=+50) was 622 nM, the CC50 (KM12; read-out: LC-50, PG=-50) was 11000 nM and the GI50 (DMS 114; DMS-114) was 414 nM. For the same compound, the IC (TGI) (DMS 114; DMS-114, read-out: TGI) was 2120 nM, the “Percent Growth” value (COLO 205; [2]) was -28% and the “Percent Growth” value (COLO 205; Log10 Concentration -5.0) was -23%. The “Percent Growth” value (COLO 205; Log10 Concentration -6.0, 1 µM) was 24%, the “Percent Growth” value (COLO 205; [1]) was 92% and the “Percent Growth” value (COLO 205; Log10 Concentration -8.0) was 119%. For the same compound, the TGI (COLO 205; PG=0) was 3200 nM, the GI50 (COLO 205; PG=+50) was 416 nM and the CC50 (COLO 205; read-out: LC-50, PG=-50) was greater than 100000 nM. The “Percent Growth” value (TK-10; [2]) was -93%, the “Percent Growth” value (TK-10; Log10 Concentration -5.0) was 49% and the “Percent Growth” value (TK-10; Log10 Concentration -6.0, 1 µM) was 90%. The “Percent Growth” value (TK-10; [1]) was 101%, the “Percent Growth” value (TK-10; Log10 Concentration -8.0) was 103% and the TGI (TK-10; PG=0) was 22100 nM. For the same compound, the GI50 (TK-10; PG=+50) was 9460 nM, the CC50 (TK-10; read-out: LC-50, PG=-50) was 49600 nM and the “Percent Growth” value (CCRF-CEM; [2]) was -35%. For the same compound, the “Percent Growth” value (CCRF-CEM; Log10 Concentration -5.0) was 13%, the “Percent Growth” value (CCRF-CEM; Log10 Concentration -6.0, 1 µM) was 74% and the “Percent Growth” value (CCRF-CEM; [1]) was 94%. For the same compound, the “Percent Growth” value (CCRF-CEM; Log10 Concentration -8.0) was 102%, the TGI (CCRF-CEM; PG=0) was 18000 nM and the GI50 (CCRF-CEM; PG=+50) was 2480 nM. For the same compound, the CC50 (CCRF-CEM; read-out: LC-50, PG=-50) was greater than 100000 nM, the “Percent Growth” value (A549/ATCC; [2]) was -66% and the “Percent Growth” value (A549/ATCC; Log10 Concentration -5.0) was -15%. For the same compound, the “Percent Growth” value (A549/ATCC; Log10 Concentration -6.0, 1 µM) was 33%, the “Percent Growth” value (A549/ATCC; [1]) was 86% and the “Percent Growth” value (A549/ATCC; Log10 Concentration -8.0) was 96%. For the same compound, the TGI (A549/ATCC; PG=0) was 4900 nM, the GI50 (A549/ATCC; PG=+50) was 469 nM and the CC50 (A549/ATCC; read-out: LC-50, PG=-50) was 48500 nM. The “Percent Growth” value (M19-MEL; [2]) was -93%, the “Percent Growth” value (M19-MEL; Log10 Concentration -5.0) was -91% and the “Percent Growth” value (M19-MEL; Log10 Concentration -6.0, 1 µM) was 38%. The “Percent Growth” value (M19-MEL; [1]) was 93%, the “Percent Growth” value (M19-MEL; Log10 Concentration -8.0) was 94% and the TGI (M19-MEL; PG=0) was 1980 nM. For the same compound, the GI50 (M19-MEL; PG=+50) was 605 nM and the CC50 (M19-MEL; read-out: LC-50, PG=-50) was 4830 nM.
